Columns and labels:
CYP450 2C19 = CYP450 2C19 (Homo sapiens, UniProt P33261); experiment: CYP inhibition assay; type: in vitro ADME
Protocol: (§1) The ADME properties of QL-1200186 in vitro were measured by the following assays: Caco-2 permeability assay, CYP inhibition assay, protein binding assay, and liver microsome assay. Each assay was performed as previously described.

CYP450 2D6 = CYP450 2D6 (Homo sapiens, UniProt P10635); experiment: CYP inhibition assay; type: in vitro ADME
Protocol: as §1

CYP450 3A4/5 = experiment: CYP inhibition assay; type: in vitro ADME
Protocol: as §1

CYP450 2C9 = CYP450 2C9 (Homo sapiens, UniProt P11712); experiment: CYP inhibition assay; type: in vitro ADME
Protocol: as §1

[1] = test system: forty-four safety targets; experiment: In vitro off-target panel of 44 safety targets; details: 10 µM
Protocol: The pharmacologic safety of QL-1200186 was tested by analyzing forty-four safety targets in vitro. The off-target effects of QL-1200186 on 24 G protein-coupled receptors (β1, β2, D1, H2, A2A, CB1, CB2,5-HT1A, 5-HT1B and D2S) were evaluated by measuring the changes in cyclic adenosine monophosphate and IP-1 levels. The effects of QL-1200186 on the current changes of eight ion-channel targets were determined by methods based on fluorescent imaging plate reading and patch clamps. Using stable transfer or transient plasmid transfer, the excitatory and inhibitory effects of QL-1200186 on glucocorticoid receptors and androgen receptors in the nucleus were determined by the change in luciferase expression. The inhibitory effects of QL-1200186 on seven enzymes (including cyclo-oxygenase-2, phosphodiesterase (PDE) 3A and PDE4D2) were evaluated by biochemical methods based on luminescence and fluorescence. After data analyses, radar charts were used to display the results.

[2] = Caco-2 permeability assay; type: in vitro ADME
Protocol: as §1

[3] = rats, data not shown
JAK1 (JH1) = JAK1 (JH1) (Homo sapiens, UniProt P23458); experiment: JH1 kinase assay, HTRF KinEASE-TK; type: biochemical
Protocol: We measured the ability of a compound to bind to JAK1/2/3 and the TYK2 JH1 domain by using HTRF® KinEASE™-TK kits (Millipore, Bedford, MA, USA). […] Next, SA-XL665 and TK antibody-Eu3 were added to the detection buffer and incubated for 1 h at RT. The HTRF signal was measured on a plate reader (Envision).

TYK2 = target: T1, TYK2 (Homo sapiens, UniProt P29597); experiment: IFNα-stimulated TYK2 phosphorylation in Jurkat cells, western blot; type: cell-based; details: IFNα 1000 U/mL
T1 construct: host or cells: Jurkat cells
Text: Then, the phosphorylation of Tyr-1054 and Tyr-1055 in Jurkat cells (Cobioer Biosciences: CBP61444) was detected by western blotting to determine the inhibitory effect of QL-1200186 on TYK2 receptor-mediated activation.

logD7.4 = type: physicochemical; details: pH 7.4
TYK2/JAK2 = experiment: IL-12/IL-18-induced IFNγ production in human whole blood, ELISA; type: cell-based; details: IL-12-induced
Protocol: The inhibitory effect of QL-1200186 on IL-12/IL-18-induced IFNγ production in NK cells or human whole blood was determined by enzyme-linked immunosorbent assay (ELISA). NK92 cells were stimulated with recombinant human IL-12 (2 ng/mL; 200–12; PeproTech, Cranbury, NJ, USA) and recombinant human IL-18 (5 ng/mL; 9124-IL-050/CF; R&D Systems, Minneapolis, MN, USA) with or without QL-1200186 for 24 h at 37 °C. For human whole blood cells, whole blood (200 μL) was preincubated with the compound for 1 h and then stimulated with recombinant human IL-12 (2 ng/mL) or recombinant human IL-18 (10 ng/mL) for 24 h. After centrifugation, the supernatant was collected, and IFNγ production in the supernatant was measured with human IFNγ ELISA kits according to the manufacturer’s instructions (Biolegend, 430,104).

Met ID in vitro = type: in vitro ADME, human
JAK3 (JH1) = JAK3 (JH1) (Homo sapiens, UniProt P52333); experiment: JH1 kinase assay, HTRF KinEASE-TK; type: biochemical
Protocol: (§2) We measured the ability of a compound to bind to JAK1/2/3 and the TYK2 JH1 domain by using HTRF® KinEASE™-TK kits (Millipore, Bedford, MA, USA). JAK1/2/3 and the TYK2 JH1 domain in assay buffer were added to various concentrations of QL-1200186 and incubated for 15 min at RT. Then, the plate was incubated with the biotin-labeled TK substrate and adenosine triphosphate for 45 min at RT. Next, SA-XL665 and TK antibody-Eu3 were added to the detection buffer and incubated for 1 h at RT. The HTRF signal was measured on a plate reader (Envision).

JAK2 (JH1) = JAK2 (JH1) (Homo sapiens, UniProt O60674); experiment: JH1 kinase assay, HTRF KinEASE-TK; type: biochemical
Protocol: as §2

TYK2 JH1 domain = target: T2, TYK2 JH1 domain (Homo sapiens, UniProt P29597); experiment: JH1 kinase assay, HTRF KinEASE-TK; type: biochemical
T2 construct: JAK1/2/3 and the TYK2 JH1 domain in assay buffer were added
Protocol: as §2

[4] = Pharmacokinetic study in C57BL/6 mice; type: in vivo
Protocol: The PK study was conducted using healthy male C57BL/6 mice (18–22 g, n = 6). Mice were fed and given free access to water prior to dosing. QL-1200186 was administered via oral or intravenous routes at doses of 10 mg/kg and 1 mg/kg, respectively. Blood samples were collected at 0.0833, 0.25, 0.5, 1, 2, 4, 8 and 24 h from the saphenous vein. Plasma was separated within 1 h of sampling by centrifugation at 1000 g. Liquid chromatography–tandem mass spectrometry of the sample was carried out on a mass spectrometer (API 5500; AB Sciex, Framingham, MA, USA). Chromatographic separation was achieved using a C18 column (2.6 µm, 50 × 3.0 mm; Kinetex; Phenomenex, Torrance, CA, USA). The main PK parameters were calculated by WinNonlin 8.0 (Certara, Princeton, NJ, USA).

T2 sequence (P29597 897-1176 limits assumed): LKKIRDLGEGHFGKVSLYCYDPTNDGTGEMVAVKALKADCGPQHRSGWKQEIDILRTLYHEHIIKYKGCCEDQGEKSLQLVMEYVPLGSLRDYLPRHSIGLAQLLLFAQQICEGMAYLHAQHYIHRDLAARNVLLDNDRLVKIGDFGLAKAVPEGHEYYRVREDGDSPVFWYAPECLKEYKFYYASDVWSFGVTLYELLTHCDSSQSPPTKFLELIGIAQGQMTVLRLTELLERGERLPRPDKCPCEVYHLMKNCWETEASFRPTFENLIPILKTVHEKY
Chain of JAK3 (JH1) (P52333 822-1111 limits assumed): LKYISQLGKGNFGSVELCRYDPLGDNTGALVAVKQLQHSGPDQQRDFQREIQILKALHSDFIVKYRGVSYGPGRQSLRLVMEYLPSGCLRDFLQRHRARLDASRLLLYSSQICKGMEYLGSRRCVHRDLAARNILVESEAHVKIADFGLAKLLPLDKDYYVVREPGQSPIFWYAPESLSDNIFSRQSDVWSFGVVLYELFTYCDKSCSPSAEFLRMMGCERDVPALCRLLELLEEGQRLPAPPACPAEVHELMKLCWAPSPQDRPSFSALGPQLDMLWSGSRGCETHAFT
Chain of JAK1 (JH1) (P23458 875-1153 limits assumed): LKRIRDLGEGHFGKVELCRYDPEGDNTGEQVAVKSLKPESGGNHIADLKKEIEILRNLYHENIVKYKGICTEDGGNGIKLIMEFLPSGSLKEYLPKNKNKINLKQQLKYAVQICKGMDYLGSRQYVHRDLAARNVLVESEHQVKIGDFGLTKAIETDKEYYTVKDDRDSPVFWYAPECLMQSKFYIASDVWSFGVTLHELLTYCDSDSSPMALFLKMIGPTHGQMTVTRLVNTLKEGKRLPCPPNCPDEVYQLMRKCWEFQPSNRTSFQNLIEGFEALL
Chain of JAK2 (JH1) (O60674 849-1124 limits assumed): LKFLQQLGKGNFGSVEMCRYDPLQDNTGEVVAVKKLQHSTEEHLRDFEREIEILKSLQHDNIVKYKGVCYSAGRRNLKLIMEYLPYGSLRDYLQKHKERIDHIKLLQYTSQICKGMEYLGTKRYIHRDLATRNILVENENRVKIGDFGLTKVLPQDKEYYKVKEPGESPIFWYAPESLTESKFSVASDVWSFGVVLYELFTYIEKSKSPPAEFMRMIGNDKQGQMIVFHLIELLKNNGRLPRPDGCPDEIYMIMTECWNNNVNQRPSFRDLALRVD
Chain of CYP450 2C19 (P33261 whole entry): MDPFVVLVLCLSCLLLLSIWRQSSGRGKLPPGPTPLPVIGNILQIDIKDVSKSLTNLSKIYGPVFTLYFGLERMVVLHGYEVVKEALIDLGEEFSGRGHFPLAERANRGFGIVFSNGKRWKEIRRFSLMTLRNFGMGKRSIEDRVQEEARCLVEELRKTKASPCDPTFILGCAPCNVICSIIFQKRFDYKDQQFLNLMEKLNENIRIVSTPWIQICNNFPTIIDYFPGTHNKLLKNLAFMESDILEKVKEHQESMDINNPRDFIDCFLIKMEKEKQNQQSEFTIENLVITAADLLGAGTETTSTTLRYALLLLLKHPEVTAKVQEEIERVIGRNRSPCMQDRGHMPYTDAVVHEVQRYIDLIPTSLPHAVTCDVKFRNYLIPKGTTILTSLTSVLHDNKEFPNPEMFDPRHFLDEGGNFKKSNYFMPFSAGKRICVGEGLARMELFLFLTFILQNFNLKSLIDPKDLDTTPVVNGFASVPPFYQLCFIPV
Chain of CYP450 2D6 (P10635 whole entry): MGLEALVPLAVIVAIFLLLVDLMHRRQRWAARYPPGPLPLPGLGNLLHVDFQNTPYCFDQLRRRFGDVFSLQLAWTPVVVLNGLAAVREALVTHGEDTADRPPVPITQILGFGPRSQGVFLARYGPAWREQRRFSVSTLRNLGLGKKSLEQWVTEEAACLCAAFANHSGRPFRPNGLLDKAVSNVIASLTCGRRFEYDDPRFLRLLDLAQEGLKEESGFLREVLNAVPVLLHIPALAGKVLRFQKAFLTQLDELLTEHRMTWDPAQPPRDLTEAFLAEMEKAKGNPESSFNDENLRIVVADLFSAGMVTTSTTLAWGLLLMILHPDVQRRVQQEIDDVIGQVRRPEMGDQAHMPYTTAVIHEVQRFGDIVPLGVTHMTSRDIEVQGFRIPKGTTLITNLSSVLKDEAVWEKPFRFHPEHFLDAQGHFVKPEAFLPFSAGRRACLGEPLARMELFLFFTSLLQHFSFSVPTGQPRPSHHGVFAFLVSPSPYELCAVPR
T1 sequence (P29597 whole entry): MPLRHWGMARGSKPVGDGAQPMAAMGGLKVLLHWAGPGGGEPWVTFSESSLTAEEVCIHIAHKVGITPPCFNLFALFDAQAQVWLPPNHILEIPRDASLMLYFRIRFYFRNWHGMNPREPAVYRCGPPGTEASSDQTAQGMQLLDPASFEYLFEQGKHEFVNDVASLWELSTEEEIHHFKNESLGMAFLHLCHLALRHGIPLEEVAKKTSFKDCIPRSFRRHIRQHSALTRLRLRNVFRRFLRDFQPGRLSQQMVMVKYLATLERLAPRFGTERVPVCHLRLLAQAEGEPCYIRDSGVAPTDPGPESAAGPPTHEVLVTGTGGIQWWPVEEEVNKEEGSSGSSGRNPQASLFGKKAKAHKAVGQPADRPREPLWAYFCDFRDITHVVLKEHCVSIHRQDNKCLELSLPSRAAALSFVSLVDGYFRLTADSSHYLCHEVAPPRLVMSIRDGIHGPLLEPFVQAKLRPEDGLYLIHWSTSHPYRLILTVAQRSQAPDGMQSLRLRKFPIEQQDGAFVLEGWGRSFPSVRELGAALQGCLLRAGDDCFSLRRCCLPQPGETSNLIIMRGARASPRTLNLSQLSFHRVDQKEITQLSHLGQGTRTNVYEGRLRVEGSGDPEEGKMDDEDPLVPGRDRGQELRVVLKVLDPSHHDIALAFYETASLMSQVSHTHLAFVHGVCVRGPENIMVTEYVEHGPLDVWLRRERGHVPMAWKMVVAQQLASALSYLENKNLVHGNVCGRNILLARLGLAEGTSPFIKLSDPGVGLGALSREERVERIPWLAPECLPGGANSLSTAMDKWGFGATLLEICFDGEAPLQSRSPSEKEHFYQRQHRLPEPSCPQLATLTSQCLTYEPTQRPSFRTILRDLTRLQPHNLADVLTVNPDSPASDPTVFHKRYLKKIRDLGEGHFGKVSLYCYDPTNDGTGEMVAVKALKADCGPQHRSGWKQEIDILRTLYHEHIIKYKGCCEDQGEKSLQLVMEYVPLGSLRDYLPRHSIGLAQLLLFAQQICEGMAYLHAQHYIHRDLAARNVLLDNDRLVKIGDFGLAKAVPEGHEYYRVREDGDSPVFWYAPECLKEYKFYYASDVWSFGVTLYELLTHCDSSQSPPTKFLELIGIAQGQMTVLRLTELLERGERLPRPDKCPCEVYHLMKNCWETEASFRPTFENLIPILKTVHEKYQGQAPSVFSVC
Chain of CYP450 2C9 (P11712 whole entry): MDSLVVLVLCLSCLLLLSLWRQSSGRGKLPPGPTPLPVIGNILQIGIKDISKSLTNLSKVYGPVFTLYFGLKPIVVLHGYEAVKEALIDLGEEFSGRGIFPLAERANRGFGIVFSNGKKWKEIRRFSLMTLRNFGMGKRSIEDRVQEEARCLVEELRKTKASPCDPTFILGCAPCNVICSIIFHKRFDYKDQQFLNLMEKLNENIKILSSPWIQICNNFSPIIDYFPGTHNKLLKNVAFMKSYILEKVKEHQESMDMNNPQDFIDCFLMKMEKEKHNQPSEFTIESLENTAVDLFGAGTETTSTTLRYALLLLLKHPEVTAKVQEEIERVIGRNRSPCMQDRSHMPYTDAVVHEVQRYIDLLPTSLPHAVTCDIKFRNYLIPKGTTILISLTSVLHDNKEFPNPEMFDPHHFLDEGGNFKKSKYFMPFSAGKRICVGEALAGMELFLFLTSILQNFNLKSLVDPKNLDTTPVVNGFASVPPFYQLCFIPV

With CNC(=O)c1cnc2cc1Nc1cc(cc(-c3ccn(C)n3)c1OC)CCOCc1cccc(n1)N2 [QL-1200186, 5^6-methoxy-N-methyl-5^5-(1-methyl-1H-pyrazol-3-yl)-8-oxa-2,4-diaza-1(2,6),3(2,4)-dipyridina-5(1,3)-benzenacyclononaphane-3^5-carboxamide] the IC50 (CYP450 2C19) was 2.9 µM, the IC50 (CYP450 2D6) was over 50 µM and the IC50 (CYP450 3A4/5) was over 50 µM. The IC50 (CYP450 2C9) was 6.4 µM, the “in vitro off-target safety, 44 safety targets” value [1] was “suitable safety” and the “Caco-2 ER (efflux ratio)” value [2] was 1.4. For the same molecule, the “safety in toxicological studies” value [3] was “excellent safety”, the IC50 (JAK1 (JH1)) was over 9.9 µM and the “Kinase assay (JH1) JAK1 IC50” value (JAK1 (JH1)) was “did not show inhibitory activity”. For the same molecule, the “IFNα-stimulated phosphorylation of TYK2 in Jurkat cells” value (TYK2) was “blocked IFNα-stimulated phosphorylation of TYK2 in Jurkat cells in a concentration-dependent manner”, the logD7.4 (logD7.4) was 3.6 and the “IFNγ production in human whole blood” value (TYK2/JAK2) was “significantly reduced”. For the same molecule, the “specific human metabolites in vitro (Met ID)” value (Met ID in vitro) was “no specific human metabolites in vitro”, the IC50 (JAK3 (JH1)) was over 9.9 µM and the “Kinase assay (JH1) JAK3 IC50” value (JAK3 (JH1)) was “did not show inhibitory activity”. For the same molecule, the IC50 (JAK2 (JH1)) was over 9.9 µM, the “Kinase assay (JH1) JAK2 IC50” value (JAK2 (JH1)) was “did not show inhibitory activity” and the IC50 (TYK2 JH1 domain) was over 9.9 µM. The “Kinase assay (JH1) TYK2 IC50” value (TYK2 JH1 domain) was “did not show inhibitory activity”, the AUC ([4]; intravenous 1 mg/kg) was 1482 ng·h/mL and the CL ([4]; intravenous 1 mg/kg) was 11.6 mL/min/kg. The MRTInf ([4]; intravenous 1 mg/kg) was 1.22 h, the T1/2 ([4]; intravenous 1 mg/kg) was 1.45 h and the Vss ([4]; intravenous 1 mg/kg) was 0.842 L/kg. The AUC ([4]; oral 10 mg/kg) was 20320 ng·h/mL, the Cmax ([4]; oral 10 mg/kg) was 3543 ng/mL and the “F (bioavailability)” value ([4]; oral 10 mg/kg) was 137%. It also gave an MRTInf ([4]; oral 10 mg/kg) of 4.34 h and a T1/2 ([4]; oral 10 mg/kg) of 2.73 h.

Reference: paper PMC10578023 (Cell Communication and Signaling : CCS, 2023)
